Data taken from patent US4966962A, “Reverse analogue of actinomycin D” (Trustees of Boston University, priority 1988, dated 1990).

Key:
[1] = system: B16 melanoma; experiment: In vivo antitumor activity against B16 melanoma; design: species or system BDF1 mice
Method: ^a 0.2 mL of 1:5 (weight/volume) brei of B16 melanoma implanted
ip on day 0 in groups of nine BDF1 mice. Drugs administered ip^b
MST (range), median survival time in days (range of days for death of
individual animal). ^c % ILS (surv), percent increase in life span
(survivors on day 65/total injected).

[2] = system: P388 Leukemia; experiment: Minimum effective dose in P388 tumor bearing mice; format: in vivo
From the text: ^a Drugs administered ip once on days 1, 5, and 9 starting 1 day afte
tumor implantation. Determinations were made from analysis of plotted
logdose response data. ^b MED (minimum effective dose) is the dose
(milligram/killogram) providing an increase in life span of 45% over

[3] = Maximum tolerated dose (LD10) in tumor-free male mice; conditions: ip days 1, 5, 9; deaths observed during 21 days; from plot of log dose vs percent mortality
Method: The analogues were also tested in tumor-free male mice for their LD10 values (Table XIV). The animals were given a broad range of doses (ip) on days 1, 5, and 9. The maximum tolerated doses of AMD and the analogues that caused death in only 10% of the tested animals in 21 days (i.e., LD10) were recorded as MTD. […] On the basis of these values, the calculated therapeutic index values of SAD is 96, and those of RAD I, II, and III are 60, 67, and 70, respectively.
control in P388 tumor bearing mice. ^c MTD (maximum tolerated dose) i
the lethal dose (milligram/kilogram) for 10% normal BDF1 male mice
days). Values were calculated from a plot of log dose vs percent

[4] = system: CX-1 human colon adenocarcinoma; experiment: Chemotherapy of human colon CX-1 tumor heterotransplanted in nude mice; format: in vivo, human tumor in athymic mice; conditions: for % T/C, optimal: TST 15, observed day 22
Method: Tables XI and XII show the effectiveness of SAD (2) and RAD (3b and 3c) against CX-1 human colon adenocarcinoma heterotransplanted into athymic mice, with three iv treatments with drugs on a weekly schedule starting on the 15th day of tumor transplant. AMD and the analogues were tested at doses of 45 and 60 ug/kg.
^a -, % T/C high than 50%; ±, % T/C close to 50%; +, % T/C from 50
to 35%; ++, % T/C from 35% to 20%; +++, % T/C lower than 20%; ++++,
regression of the tumor to a volume lower than 10% of the volume at the
start of treatment. ^b Statistically significant as evaluated by the
^a Intravenous treatment, once a week for three weeks; eight mice per
group. ^b TST; number of days between tumor transplant and starting o
treatment. ^c Numbers in parentheses; day of observation after the […]

[5] = system: P388/S (adriamycin sensitive) leukemia; experiment: Antitumor activity in vivo, P388/S leukemia; design: species or system mice; conditions: P388/S, at optimal dose, ip days 1, 5, 9
Method: The analogues were tested for their antitumor activities in P388 lymphocytic leukemia in male BDF1 mice.
^a Male CDF1 mic inoculated ip: 10^6 cells inoculum, day 0.
Drugs administered in 10% dimethyl sulfoxidesaline on days 1, 5, and 9. %
ILS = percent increase in life span. Fractions in parentheses = tumor fre
survivors/total on day 60^b. P388/S (adriamycin sensitive) and
P388/ADR (adriamycin resistant) tumors were evaluated in the same
experiment with agent listed.

[6] = system: mammary MX-1; experiment: Treatment of mammary MX-1 tumor; format: in vivo; conditions: at 60 mg/kg
[7] = system: colon 38 adenocarcinoma; experiment: Activity against advanced colon carcinoma C38 tumor; format: in vivo, CDF1 mice; conditions: for % inhibn of tumor: tumors measured day 21
Method: In view of favorable activity agianst colon 26 carcinoma, further experiments using the active analogues were carried out on the advanced colon adenocarcinomas of mouse colon 38. […] The superiority of RAD III and SAD over AMD in inhibiting colon 38 carcinoma is evident from the data of both tumor weight inhibition and increases in survival time of the treated over nontreated mice and the larger number of long-term survivors produced by these analogues.
^a CDF1 mice were injected sc with colon 38 adenocarcinoma
fragments (70 mg) and treated with drugs with iv injections on day 1, 5,
and 9 following tumor imoplantation on day 0. ^b [100 (tumor weight o
treated mice/tumor weight of untreated mice)] × 100; data pooled
from two experiments, tumors measured on day 21 after implantation ^c
(Median survival time of treated mice/median survival of untreated mice)
× 100; in parenthesis, number of over 100 day survivors/number of […]

[8] = system: lung LX-1; experiment: Treatment of lung LX-1 tumor; format: in vivo; conditions: at 60 mg/kg
[9] = Toxic deaths in nontumored mice treated in parallel (colon 38 experiment); format: in vivo
From the text: × 100; in parenthesis, number of over 100 day survivors/number of
mice in a group of nontumored mice treated in parallel with the
tumorbearing mice and observed for 100 days.

[10] = system: P388/ADR (adriamycin resistant) leukemia; experiment: Antitumor activity in vivo, P388/ADR leukemia; design: species or system mice; conditions: at optimal dose, ip days 1, 5, 9
Method: The analogues were also tested against P388/ADR murine leukemia following the standard protocol (Table VI).
ILS = percent increase in life span.

[11] = system: supercoiled closed-circular pBR322 DNA; experiment: Cleavage of closed circular pBR322 DNA; format: biochemical; conditions: 20° C., 1 h, Na2S2O4, FeCl2
Method: The cleavage of DNA was followed by monitoring of the conversion of supercoiled closed-circular pBR322 DNA to open-circular DNA (analyzed by agarose gel electrophoresis and quantitated by staining with 0.5 ug/mL of ethidium bromide for 30 min and densitometry; (Table II). SAD and RAD show strong DNA-cleaving ability in the presence of sodium hydrosulfite and ferrous chloride. Presumably, sodium hydrosulfite acts as a reducing agent and regenerates Fe(II) from Fe(III) to produce a continuous source of the active metal ion. When the DNA-cleaving reaction with the analogues was performed at 20° C., the ratio of cleaved DNA (open circular form DNA versus closed circular DNA) was almost maximum within 1 h. […] Cleavage of DNA by the analogues is aided by the actinomycin chromopeptide moiety, which acts as a site-specific binder to DNA, and is effected by the aminoquinone function which is chelated to the ferrous ion during the process, and this is the likely candidate which generates the radical species.
Plasmid DNA pBR322 (0.5 ug) was dissolved in /8 μL of a reaction buffer (5 mM […], 10 mM Tris-HCl). To this solution, 1 μL of the 10 mM aqueous solution of the agent containing 1 mM FeCl2 was added. The mixture was incubated for 0.5-2 h at 20° or 37° C. Then, the incubation mixture was mixed with 10 uL of sample loading buffer (50% glycerin in 2 X Boyer's buffer containing 0.01% bromophenol blue). Finally, 5 uL of the mixture was analyzed by 0.7% agarose gel electrophoresis (120 V, Boyer's buffer; the migration distance of bromophenol blue was 5.0 cm). The gel was stained with […] of ethidium bromide and then quantitated by densitometry.
^a Ten microliters of 200 u M pBR322 DNA nucelotides in UM 10 mM
TrisHCl (pH 7.8) and 50 mM NaCl, containing 4 mM Na2 --S2
O4 and 100 μM FeCl2, was incubated with drug concentration a
20° C. for 1 h; the reaction mixture was kept saturated with air
throughout the incubation period.
^b Percentage of DNA was calculated from the amounts of openand
closedcir- cular DNA in the incubation mixture.

[12] = at optimal dose, ip days 1, 5, 9

## Cc1nc2c(C(=O)N[C@@H]3C(=O)N[C@H](C(C)C)C(=O)N4CCC[C@H]4C(=O)N(C)CC(=O)N(C)[C@@H](C(C)C)C(=O)O[C@@H]3C)c3nc4c(C(=O)N[C@@H]5C(=O)N[C@H](C(C)C)C(=O)N6CCC[C@H]6C(=O)N(C)CC(=O)N(C)[C@@H](C(C)C)C(=O)O[C@@H]5C)c(N)c(=O)c(C)c-4oc3c(C)c2o1 [RAD I (3a)]
[1]; [12]
  % ILS: 124%
  survivors on day 65/total injected: 6/9
[1]; at optimal dose, ip days 1, 5, 9, range of days of death
  MST (range), median survival time: 65(55-62) days
[1]; ip, days 1, 5, 9
  optimal dose: 300 μg/kg per inj
[2]; MTD in normal BDF1 mice / MED in P388 tumor bearing mice
  therapeutic index MTD/MED: 60
[2]; ip once on days 1, 5, and 9, from plotted log-dose response data
  MED (minimum effective dose), dose giving 45% increase in life span over control: 0.03 milligram/killogram
[3]
  MTD (maximum tolerated dose), lethal dose for 10% of normal mice (LD10): 1.80 milligram/kilogram

## COc1cccc2c1C(=O)c1c(O)c3c(c(O)c1C2=O)C[C@@](O)(C(=O)CO)C[C@@H]3O[C@H]1C[C@H](N)[C@H](O)[C@H](C)O1 [adriamycin]
[4]; dose 6 × 10^3 μg/kg iv once a week for three weeks
  % T/C, optimal: 38%
[4]; dose 10 × 10^3 μg/kg iv once a week for three weeks
  % T/C, optimal: 39%
[4]; three iv treatments weekly from 15th day of transplant, at the doses tested
  response of CX-1 tumor to treatment (in words): ineffective
[5]
  tumor free survivors/total on day 60: 1/8
[6]
  response of mammary MX-1 to treatment: some positive response
[7]; dose 2.0 mg/kg iv days 1, 5, 9
  % T/C (median survival time): 103%
  % inhibn of tumor: 29%
[7]; dose 3.0 mg/kg iv days 1, 5, 9
  % T/C (median survival time): 98%
  % inhibn of tumor: 70%
[7]; dose 4.0 mg/kg iv days 1, 5, 9
  % T/C (median survival time): 250%
  over 100 day survivors/number of mice: 5/9
  % inhibn of tumor: 93%
[8]
  response of lung LX-1 to treatment: some positive response
[9]; dose 2.0 mg/kg iv days 1, 5, 9
  toxic deaths: 0/9
[9]; dose 3.0 mg/kg iv days 1, 5, 9
  toxic deaths: 0/9
[9]; dose 4.0 mg/kg iv days 1, 5, 9
  toxic deaths: 3/9
[9]; dose 5.0 mg/kg iv days 1, 5, 9
  toxic deaths: 8/9

## CO[C@@]12[C@H](COC(N)=O)C3=C(C(=O)C(C)=C(N)C3=O)N1C[C@@H]1N[C@@H]12 [mitomycin C]
[5]
  tumor free survivors/total on day 60: 1/8
[10]
  tumor free survivors/total on day 60: 5/8

## bleomycin [BLM (bleomycin)]
[11]
  Percentage of closed circular pBR322 DNA cleaved: 55%
[11]; concn 50 M (so in the source)
  Percentage of closed circular pBR322 DNA cleaved: 75%
[11]; concn 100 M (so in the source)
  Percentage of closed circular pBR322 DNA cleaved: 85%
